Where “and” joins values, the source holds several entries; their conditions need not be identical. Equal values may be shown once. Where a name gives a salt, the structure may show the parent alone.

What all share (type): physicochemical
The nature of series [1]: Surface smoothness from particle images (Scanning Electron Microscopy). The note with it: as shown in images of the particles. As for the experimental part:
An additional estimate of the particles' smoothness was performed by analyzing the samples via Scanning Electron Microscopy (SEM). FIGS. 9A-C are images of the raw sucrose particles (FIG. 9A), sucrose particles of the present embodiments (FIG. 9B) and the prior art particles (FIG. 9C).

Series [2] in a line: Angle of repose test on tilted smooth tile. To be noted: tile tilted 1° at a time; angle at which first particles slide. The text has this:
Another definition of the angle of repose is the maximum angle of tilt of a bed of the powder beyond which the powder cannot retain a static pose. To measure the angle of repose according to this definition, the powder of the present embodiments can be placed on a smooth solid bed surface. The bed surface can then be tilted very slowly about the horizontal axis to a maximum angle without the particles sliding. When the bed surface is tilted beyond the maximum angle, sliding occurs, and the angle of the bed surface to the horizontal once the particles begin sliding is defined as the angle of repose. An angle of repose measured by this technique is oftentimes referred to as tilting angle of repose.
The diltiazem hydrochloride particles were subjected to an angle of repose test. The particles were placed on a smooth tile positioned horizontally. The tile was tilted slowly each time at 1° about the horizontal axis. The angle of repose was defined as the angle at which the first particles had slide.

Series [3] can be described thus: Sphericity by optical microscope images and image processing software (Buehler Omnimet). As for the experimental part:
Thus, denoting the area of the image by A and the perimeter of the image by P, the sphericity, s, can be defined as s=4πA/P^2. As will be appreciated by one of ordinary skill in the art, when the image is a perfect circle, A=π(P/2π)^2=P^2/4π and s=1. When the area of the image is 0 (i.e., the image is a line or a curve) s=0. The samples were imaged through a transmission optical microscope (magnification: ×12.5). The images were analyzed by image processing software (Buehler Omnimet®). Each image processing comprised the following steps. In a first step the particles were delineated for 1 cycle; in a second step, dark areas were defined by thresholding; in a third step, the dark areas were filled; in a fourth step, particles smaller than 20×20 pixels were eliminated; in a fifth step border particles were eliminated; and in a sixth step the delineation of the non-eliminated particles were processed by the octagonal kernel of the software for 3 cycles. FIG. 19 is an image showing the raw sucrose particles after image processing. Following image processing the area, A, and perimeter, P, of each particle was measured from the images. The sphericity of each particle was defined as 4πA/P^2.

Series [4] in a line: Shape factor and aspect ratio by DSA-10 image analyzer. To be noted: samples (i)-(iii); for shape factor: 4πA/P^2 by DSA-10 during constant flow of slurry; for aspect ratio: minimal Feret / maximal Feret. As for the experimental part: The sphericity of the particles was also measured using a DSA-10 image analyzer (Ankersmid Ltd., Israel). The analysis was performed during constant flow of slurry containing the particles. Images of about 1000 particles were analyzed by the image analyzer to determine the sphericity of the particles. In these measurements the sphericity was also as defined 4πA/P^2. To distinguish between the sphericity values obtained as determined using the image processing software and the sphericity values obtained using the image analyzer, the latter are referred to below as “shape factor”.
Beside sphericity, the DSA-10 image analyzer was used to characterize the shape of the particles by their aspect ratio, defined as the ratio between the minimal Feret and the maximal Feret of the particles.

The nature of series [5]: Flow rate test with Hall flow meter. The note with it: 5 millimeter diameter nozzle tilted at an angle of 30°. The text has this: The flowability of the powder of the present embodiments can also be characterized by its flow rate at certain conditions. The flowability can be measured using a suitable flow meter, such as, but not limited to, a Hall flow meter. Thus, according to a preferred embodiment of the present invention the powder of the preset embodiments is capable of maintaining a flow rate of at least 6, more preferably at least 8, more preferably at least 10 gram per square centimeter per second, through a 5 millimeters nozzle tilted at an angle of 30°.
The metformin particles were subjected to a flow rate test using a Hall flow meter having a 5 millimeter diameter nozzle. The nozzle was tilted at an angle of 30°.

Series [6] is described as follows: Ratio of optical surface area to BET surface area / rugosity. An excerpt: In an additional embodiment, the smoothness is defined by a ratio between an optical surface area of the particle and a BET surface area thereof.
An optical surface area of the particle is the surface area of the particle as measured optically. Such measurement can be performed, for example, by obtaining an image of the particle using an optical microscope and estimating its surface area, by approximating the shape of the particle to a symmetrical shape. For example, when the shape of the particle is similar to a sphere, its optical surface area can be approximated by 4πR^2, where R is the radius of the particle, as measured from the image. When the shape of the particle is similar to a spheroid, having a long axis a and an aspect ratio of ε, its surface area can be approximated by 2πa^2 ε (ε+t/b), where b is given by b^2=1−ε^2, and t (in radians) is given by sin(t)=b. As will be appreciated by one ordinarily skilled in the art the aspect ratio can also be approximated as the square root of the sphericity defined above.
A BET surface of the particle refers to a surface measured using a method developed by Brunauer, Emmett and Teller and commonly referred to as BET method. According to the BET method, the surface area is determined by allowing the surface to interact with nitrogen molecules and analyzing the corresponding adsorption curves. […]

Series [7] in a line: BET specific surface area measurement (TriStar 3000 analyzer). As for the experimental part: A BET surface of the particle refers to a surface measured using a method developed by Brunauer, Emmett and Teller and commonly referred to as BET method. According to the BET method, the surface area is determined by allowing the surface to interact with nitrogen molecules and analyzing the corresponding adsorption curves. The BET method is well known in the art and is found in many publications (to this end see, e.g., S. J. Gregg and K. S. Sing, “Adsorption, Surface Area and Porosity”, Academic Press, London, 1995).
Following drying, a sample of the formed sucrose particles was subjected to BET measurement using a TriStar 3000 analyzer (Micromeritics, Georgia, USA), to obtain a specific surface area for the particles (surface area per unit mass). An averaged value of 0.03 m^2/gr was measured. For comparison, the specific surface area of a sample of prior art particles of similar size (355-500 micrometer Suglets®, purchased from NP Pharm, France), was also measured. The specific surface area of the particles of this sample was 0.27 m^2/gr. Thus, the sucrose particles produced according to the teaching of the present embodiments of the invention are characterized by a specific surface area which is about 9 times smaller than the specific surface area characterizing the prior art. As the average size of the samples was similar, the specific surface was used as a measure of the smoothness of the particles.

The mark [8] stands for this setting: Table 2, samples (i)-(iii), hydrochloride.
The mark [9] stands for this setting: 4πA/P^2, Table 1, magnification ×12.5.

On to `COc1ccc([C@@H]2Sc3ccccc3N(CCN(C)C)C(=O)[C@@H]2OC(C)=O)cc1` [diltiazem hydrochloride], for which, in series [1], the “surface of the particles (image)” value was “substantially smooth”. The angle of repose in series [2] is given as 38 °.

On to `COc1ccc([C@@H]2Sc3ccccc3N(CCN(C)C)C(=O)[C@@H]2OC(C)=O)cc1.Cl` [raw dilitiazem hydrochloride, diltiazem hydrochloride, reference compound], for which the sphericity in series [3] (setting [8]) is 0.5278 and 0.4773 and 0.4954. In series [4] (hydrochloride), the shape factor was 0.7032 and 0.7056 and 0.6847; the aspect ratio was 0.5416 and 0.5442 and 0.5293. In series [2], the angle of repose turned out to be 48 °.

Regarding `CN(C)C(=N)N=C(N)N` [raw metformin, metformin, reference compound], the sphericity in series [3] (Table 2, samples (i)-(iii)) was 0.6146 and 0.5675 and 0.5720. Also, in series [4], the shape factor is 0.8244 and 0.8214 and 0.8404; the aspect ratio was 0.6900 and 0.6434 and 0.6420. Besides, the flow rate entry in series [5] (listed as raw metformin particles) is listed as “no flow was observed”.

For the compound `NC(=O)N1c2ccccc2CC(=O)c2ccccc21` [raw oxcarbazepine, oxcarbazepine, reference compound], the sphericity in series [3] (Table 2, samples (i)-(iii)) was 0.4997 and 0.4760 and 0.4144. For the same compound, in series [4], the shape factor is 0.7789 and 0.7908 and 0.7886; the aspect ratio was 0.6102 and 0.6062 and 0.6221.

In series [3] (setting [9]), `OC[C@H]1O[C@@](CO)(O[C@H]2O[C@H](CO)[C@@H](O)[C@H](O)[C@H]2O)[C@@H](O)[C@@H]1O` [raw sucrose, sucrose, reference compound] had a sphericity of 0.773 ± 0.05.

With `OC[C@H]1O[C@@](CO)(O[C@H]2O[C@H](CO)[C@@H](O)[C@H](O)[C@H]2O)[C@@H](O)[C@@H]1O` [rounded 300-600 μm sucrose, sucrose], in series [6] (corresponds to optical/BET surface area ratio), the rugosity is recorded as 1.5-3. In series [6] (spherical or spherical-like particle, diameter about 400 micrometer), the optical specific surface area fell in the range of 0.01 to 0.02 m²/g. Moreover, the “surface of the particles (image)” value in series [1] is listed as “substantially smooth”. This compound also registered a sphericity in series [3] (setting [9]) of 0.875 ± 0.027. Also, the “specific surface area (surface area per unit mass), BET” value in series [7] (dried powder sample, averaged value) is 0.03 m^2/gr. Moreover, the BET specific surface entry in series [7] (particles whose average diameter is about 400 micrometer) is given as “about 0.03 gr/m^2”. Further, the “specific surface area, times smaller than prior art” value in series [7] (versus 355-500 micrometer Suglets of similar size) is “about 9 times”.

For the compound `COc1ccc([C@@H]2Sc3ccccc3N(CCN(C)C)C(=O)[C@@H]2OC(C)=O)cc1.Cl` [rounded dilitiazem hydrochloride 20-45 μm] [diltiazem hydrochloride], the sphericity in series [3] (setting [8]) is 0.5106 and 0.5220 and 0.5139. In series [4] (hydrochloride), the shape factor is 0.8426 and 0.8168 and 0.8467; the aspect ratio was 0.6915 and 0.6935 and 0.6947.

As for `COc1ccc([C@@H]2Sc3ccccc3N(CCN(C)C)C(=O)[C@@H]2OC(C)=O)cc1.Cl` [rounded dilitiazem hydrochloride above 45 μm] [diltiazem hydrochloride], the sphericity in series [3] (setting [8]) is 0.6572 and 0.6601 and 0.6940. Further, in series [4] (hydrochloride), the shape factor is 0.8229 and 0.8211 and 0.8368; the aspect ratio was 0.7015 and 0.6986 and 0.7053.

With `COc1ccc([C@@H]2Sc3ccccc3N(CCN(C)C)C(=O)[C@@H]2OC(C)=O)cc1.Cl` [rounded dilitiazem hydrochloride mix 20-45 μm + 45 μm] [diltiazem hydrochloride], in series [3] (setting [8]), the sphericity is 0.5315 and 0.6004 and 0.5942. Further, in series [4] (hydrochloride), the shape factor was 0.8383 and 0.8419 and 0.8279; the aspect ratio is 0.6828 and 0.6923 and 0.6731.

Consider `CN(C)C(=N)N=C(N)N` [rounded metformin, metformin], for which, in series [1], the “surface of the particles (image)” value is on record as “substantially smooth”. The sphericity in series [3] (Table 2, samples (i)-(iii)) is 0.7634 and 0.7676 and 0.7344. Moreover, in series [4], the shape factor was 0.8719 and 0.8739 and 0.8843; the aspect ratio is 0.6791 and 0.6740 and 0.6904. Besides, the flow rate in series [5] (listed as rounded metformin particles) is on record as 10.2 gr/(cm^2×s).

As for `NC(=O)N1c2ccccc2CC(=O)c2ccccc21` [rounded oxcarbazepine, oxcarbazepine], the sphericity in series [3] (Table 2, samples (i)-(iii)) was 0.6103 and 0.5707 and 0.4969. Besides, in series [4], the shape factor is 0.8138 and 0.7996 and 0.8174; the aspect ratio was 0.5875 and 0.5887 and 0.5829.
